Laboratory results taken from article doi:10.1101/2025.10.23.682519v1 (biorxiv, 2025).

Tests used:
Experiment in all cases: cell-based
human ZIP8 (hZIP8) = human ZIP8 (hZIP8) (Homo sapiens, UniProt Q9C0K1)
[1] = target: human ZIP14 (hZIP14) isoform 1, HA-tagged (Homo sapiens, UniProt Q15043)
[2] = target: human ZIP14 (hZIP14) isoform 1, HA-tagged (Homo sapiens, UniProt Q15043, D443L)
human ZIP14 (hZIP14) isoform 1, HA-tagged (Homo sapiens, UniProt Q15043, D443L), sequence (Q15043 31-492 D443L): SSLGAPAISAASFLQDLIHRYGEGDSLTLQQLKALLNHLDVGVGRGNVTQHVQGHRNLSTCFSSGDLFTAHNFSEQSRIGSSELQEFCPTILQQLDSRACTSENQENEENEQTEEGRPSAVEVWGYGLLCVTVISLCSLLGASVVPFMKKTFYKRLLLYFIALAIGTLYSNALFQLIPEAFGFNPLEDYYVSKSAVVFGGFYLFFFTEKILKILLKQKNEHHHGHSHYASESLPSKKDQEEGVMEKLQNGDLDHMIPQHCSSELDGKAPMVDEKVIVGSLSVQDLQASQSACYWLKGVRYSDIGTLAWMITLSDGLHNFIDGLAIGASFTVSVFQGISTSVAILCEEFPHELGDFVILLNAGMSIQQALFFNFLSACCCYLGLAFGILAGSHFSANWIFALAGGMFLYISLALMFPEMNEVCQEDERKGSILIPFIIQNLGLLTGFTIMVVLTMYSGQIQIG

human ZIP8 (hZIP8), sequence (Q9C0K1 23-460): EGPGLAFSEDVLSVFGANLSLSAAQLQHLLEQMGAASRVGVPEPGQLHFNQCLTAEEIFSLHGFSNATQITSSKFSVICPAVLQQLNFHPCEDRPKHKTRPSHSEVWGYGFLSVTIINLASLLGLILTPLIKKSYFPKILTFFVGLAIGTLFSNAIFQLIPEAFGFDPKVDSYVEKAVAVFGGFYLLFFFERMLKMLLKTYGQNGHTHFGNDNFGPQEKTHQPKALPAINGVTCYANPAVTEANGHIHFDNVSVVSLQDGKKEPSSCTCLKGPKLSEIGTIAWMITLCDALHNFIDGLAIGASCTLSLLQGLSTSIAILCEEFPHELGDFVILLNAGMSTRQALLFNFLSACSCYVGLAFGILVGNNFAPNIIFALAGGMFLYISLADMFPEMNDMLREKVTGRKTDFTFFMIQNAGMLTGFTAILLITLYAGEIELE
human ZIP14 (hZIP14) isoform 1, HA-tagged (Homo sapiens, UniProt Q15043), sequence (Q15043 31-492): as the sequence (Q15043 31-492 D443L) above, with L413D counted along it

In the case of `O=C1NCN(c2ccccc2)C12CCN(CCc1ccccc1)CC2` [PPTD, 1-phenyl-8-(2-phenylethyl)-1,3,8-triazaspiro[4.5]decan-4-one], the IC50 (human ZIP8 (hZIP8)) is reported as > 37 µM, the IC50 [1] is reported as 8.9 µM and the IC50 [2] is reported as 19 µM.
